For assay [1], the target named is T1, Cathepsin G (Homo sapiens) (UniProt P08311).
T1 sequence (whole entry): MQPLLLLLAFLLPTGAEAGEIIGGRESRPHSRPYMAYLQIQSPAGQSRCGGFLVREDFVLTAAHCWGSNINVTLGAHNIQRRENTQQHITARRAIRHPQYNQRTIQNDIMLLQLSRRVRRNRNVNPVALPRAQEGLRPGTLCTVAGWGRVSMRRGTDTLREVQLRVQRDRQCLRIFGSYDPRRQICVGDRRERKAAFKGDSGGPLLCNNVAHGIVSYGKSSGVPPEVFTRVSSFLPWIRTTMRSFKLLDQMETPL
Kind of assay: Compound was evaluated for inhibitory activity towards Cathepsin G.

Assay [2] deals with T2, Neutrophil elastase (Homo sapiens) (UniProt P08246).
T2 sequence (whole entry): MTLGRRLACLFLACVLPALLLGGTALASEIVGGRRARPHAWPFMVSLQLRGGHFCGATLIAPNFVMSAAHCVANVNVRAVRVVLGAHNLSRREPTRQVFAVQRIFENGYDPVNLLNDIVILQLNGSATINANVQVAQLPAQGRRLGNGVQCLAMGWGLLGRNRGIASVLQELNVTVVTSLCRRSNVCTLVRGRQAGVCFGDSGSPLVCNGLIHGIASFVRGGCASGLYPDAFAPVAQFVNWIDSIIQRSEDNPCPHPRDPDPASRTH
The assay is described as follows: Compound was evaluated for inhibitory activity against human leukocyte elastase.

Assay [3] concerns the target T3, Myeloblastin (Homo sapiens) (UniProt P24158).
T3 sequence (whole entry): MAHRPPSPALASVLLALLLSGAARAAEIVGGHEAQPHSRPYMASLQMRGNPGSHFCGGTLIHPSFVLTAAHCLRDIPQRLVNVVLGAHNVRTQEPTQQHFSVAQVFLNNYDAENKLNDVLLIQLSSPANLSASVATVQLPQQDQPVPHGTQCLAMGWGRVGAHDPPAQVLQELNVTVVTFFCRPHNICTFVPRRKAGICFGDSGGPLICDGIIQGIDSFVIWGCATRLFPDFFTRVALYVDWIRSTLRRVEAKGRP
Kind of assay: Compound was evaluated for inhibitory activity against Proteinase 3.

SMILES strings stand for the structures.

Turning to `CC(C)CC1C(=O)N(COP(=O)(OCc2ccccc2)OCc2ccccc2)S(=O)(=O)N1Cc1ccccc1` (centres undefined), the figures for the K inact/Ki in assay [1], in assay [2] and in assay [3] were 120 M⁻¹ s⁻¹, 6e+06 M⁻¹ s⁻¹ and 89100 M⁻¹ s⁻¹, respectively.

`CC(C)CC1CS(=O)(=O)N(COP(=O)(OCc2ccccc2)OCc2ccccc2)C1=O` (centres undefined) returned a K inact/Ki in assay [2] of 95000 M⁻¹ s⁻¹.

Take `CCCCOP(=O)(OCCCC)OCN1C(=O)C(CC(C)C)N(C)S1(=O)=O` (centres undefined): the K inact/Ki in assay [2] came to 2.7e+06 M⁻¹ s⁻¹.

In turn, `CCCCOP(=O)(OCCCC)OCN1C(=O)C(CC(C)C)N(CC2C=CC=C2)S1(=O)=O` (centres undefined) had a K inact/Ki in assay [2] of 2.5e+06 M⁻¹ s⁻¹.

`COP(=O)(OC)OCN1C(=O)C(CC(C)C)N(CC2C=CC=C2)S1(=O)=O` (centres undefined) returned a K inact/Ki in assay [2] of 430000 M⁻¹ s⁻¹.

In turn, `CC(C)CC1C(=O)N(COP(=O)(Oc2ccccc2)Oc2ccccc2)S(=O)(=O)N1CC1C=CC=C1` (centres undefined) registered a K inact/Ki in assay [2] of 4.2e+06 M⁻¹ s⁻¹.

On to `CCCCOP(=O)(OCCCC)OCN1C(=O)C(CC(C)C)CS1(=O)=O` (centres undefined), for which the K inact/Ki in assay [2] is 82000 M⁻¹ s⁻¹.
